According to PMC11124852 (Pharmaceutics, 2024):
In brackets after ≈: the same amount, converted by molar mass. Several values for one entry are separate records, joined by “and”; a condition that tells them apart may be missing. Equal entries are not always repeated.

Legend:
[1] = target: SARS-CoV-2 spike RBD to human ACE2 (Severe acute respiratory syndrome coronavirus 2, UniProt P0DTC2); test: biochemical; type: binding, SARS-CoV-2 / human; conditions: for IC50: IC50 (µM)
[2] = In vitro cytotoxicity, MTT method; conditions: mouse, J774.2 macrophage cells, CC50 (µM), macrophage cell line J774.2, 48 h, MTT; means of three experiments
Method: (§1) The mouse macrophage cell line J774.2 (ATCC® TIB-67) was used for the evaluation of the in vitro cytotoxicity. Cells were cultured in RPMI medium supplemented with 10% SFB, […], and glutamine (2 mM) at 37 °C and in an atmosphere of 5% CO2. The medium was changed at intervals of every 2 to 3 days. For the cytotoxicity assays, 1 × 10^6 cells were incubated with different concentrations of the compounds (0.78 to 200 µM) at 37 °C for 48 h in an atmosphere of 5% CO2. Cells in the presence of the maximum concentration of DMSO (0.2%) were included as a negative control. The metabolic activity of the cells was determined using the MTT method. The percentage of cell viability was calculated, and the mean cytotoxic concentration (CC50) was determined via a Probit analysis. Three independent assays were performed in triplicate each. Finally, the selectivity index (SI) was calculated using the following formula CC50/IC50.

[3] = tested on: mouse macrophage cell line J774.2; test: In vitro cytotoxicity, MTT method; conditions: for SI: selectivity index CC50/IC50
Method: as §1

rats = conditions: concentrations of 0.03, 0.3, and 3%; cited from earlier work
[4] = target: S protein with the ACE2 host receptor; conditions: cell-free ELISA-type assay; cited from earlier work
S protein = conditions: block the S protein and inhibit protein-mediated intercellular fusion; cited from earlier work
meiobenthic nematodes = conditions: cited from earlier work
[5] = tested on: S protein and its host cell receptor ACE2; conditions: cited from earlier work
[6] = tested on: S protein and its host cell receptor ACE2; conditions: cited from earlier work; remark: listed apart in the source

Row | Compound | inhibition at 50 µM [1] | IC50 [1] | SI [3] | also measured
1 | O=C(Nc1ccc2c(O)c(/N=N/c3ccc(/N=N/c4ccc(S(=O)(=O)[O-])cc4)cc3)c(S(=O)(=O)[O-])cc2c1)c1ccccc1.[Na+].[Na+] [DRI-1, [Na+].[Na+].c1(/N=N/c2ccc(cc2)/N=N/c2c(cc3c(c2O)ccc(c3)NC(=O)c2ccccc2)S(=O)(=O)[O-])ccc(cc1)S(=O)(=O)[O-]] | 90.59 ± 0.54% | 13 ± 0.71 µM | 7.25 | CC50 at 48 h [2]: 94.5 µM; CC50 ([3]; macrophage cell line J774.2, 48 h, MTT, means of three experiments): 94.5 ± 0.96 µM
2 | O=C(Nc1ccc2c(O)cc(S(=O)(=O)O)cc2c1)Nc1ccc2c(O)cc(S(=O)(=O)O)cc2c1 [DRI-2, c12c(ccc(c1)NC(=O)Nc1cc3c(cc1)c(cc(c3)S(=O)(=O)O)O)c(cc(c2)S(=O)(=O)O)O] | 90.8 ± 1.7% | 8.84 ± 4.3 µM | 22.6 and 22.62 | –
3 | CCN(Cc1cccc(S(=O)(=O)O)c1)c1ccc(C(=C2C=CC(=[N+](CC)Cc3cccc(S(=O)(=O)O)c3)C=C2)c2ccccc2)cc1 [DRI-3, guinea green B] | 99.65 ± 0.25% | 2.14 ± 0.97 µM | 93.4 and 93.45 | toxicity in rats (rats): initial growth depression in rats, as well as the appearance of malignant tumors
4 | CCOc1ccc(NS(=O)(=O)c2ccc(NC(=O)c3ccc(-c4ccccc4)cc3)cc2)cc1 [DRI-4, S(=O)(=O)(Nc1ccc(cc1)OCC)c1ccc(NC(=O)c2ccc(cc2)c2ccccc2)cc1] | 76.4 ± 1% | 24.6 ± 2.5 µM | 8.14 | CC50 at 48 h [2]: > 200 µM
5 | CC(=O)Nc1ccc(OS(=O)(=O)c2ccc3c4c(cccc24)C(=O)N3)c2ccccc12 [DRI-5, CC(=O)Nc1ccc(OS(=O)(=O)c2ccc3NC(=O)c4cccc2c34)c2ccccc12] | 69.9 ± 1.2% | 13.7 ± 0.12 µM | 9.21 | CC50 at 48 h [2]: 126 ± 2.3 µM
6 | O=C(Nc1ccc2cc(S(=O)(=O)O)cc(O)c2c1)c1ccc(-c2ccc(C(=O)Nc3ccc4cc(S(=O)(=O)O)cc(O)c4c3)cc2)cc1 [DRI-C91005] | – | – | – | IC50 [4]: 0.16 µM
7 | C[C@]12CC[C@@H]3c4ccc(OC(=O)c5ccccc5)cc4CC[C@H]3[C@@H]1CC[C@@H]2O [estradiol benzoate] | – | – | – | IC50 (S protein): 1.02 µM; concentration from which significant toxicity starts (meiobenthic nematodes): ≥ 4.3 pg/mL
8 | CCC(C)n1ncn(-c2ccc(N3CCN(c4ccc(OCC5COC(Cn6cncn6)(c6ccc(Cl)cc6Cl)O5)cc4)CC3)cc2)c1=O (stereo not drawn) [itraconazole] | – | – | – | IC50 (S protein): 0.45 µM
9 | COc1ccc2c(O[C@@H]3C[C@H]4C(=O)N[C@]5(C(=O)NS(=O)(=O)C6CC6)C[C@H]5/C=C\CCCCN(C)C(=O)[C@@H]4C3)cc(-c3nc(C(C)C)cs3)nc2c1C [simeprevir] | – | – | – | Kd [5]: 0.812 µM
10 | CS(=O)(=O)c1cccc(C[C@H](NC(=O)c2c(Cl)cc3c(c2Cl)CCN(C(=O)c2ccc4ccoc4c2)C3)C(=O)O)c1 [sodium lifitegrast] | – | – | – | Kd [5]: 0.00192 µM
11 | CC1=C(C)C(=O)O[C@@H]([C@@H](C)[C@@]2(O)CC[C@H]3[C@@H]4[C@@H]5O[C@@H]5[C@@]5(O)CC=CC(=O)[C@]5(C)[C@H]4CC[C@@]32C)C1 [withanone] | – | – | – | IC50 [6]: 0.33 ng/mL (≈ 0.701 nM)
